Laboratory results as given in patent publication US9856279B2 (AGIOS PHARMACEUTICALS, INC, priority 2011, dated 2018).

How the values were obtained:
HT1080 cells = experiment: Cellular assay for IDH1m inhibitors: inhibition of 2-HG production (LC-MS, 48 hours) in HT1080 cells; format: cell-based; conditions: Homo sapiens, HT-1080; inhibition of 2-HG production, HT1080 cells; read-out: HT1080 IC50
How it was run: (§1)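 5000 cells/well, DMEM + 10% FBS, overnight 37 °C/5% CO2; compound added (0.2% DMSO final), 48 h; medium sampled for LC-MS 2-HG; IC50 vs DMSO control.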

IDH1 R132H = IDH1 R132H (Homo sapiens, UniProt O75874, R132H); experiment: Assay for IDH1 R132H inhibitors (NADPH/aKG, resazurin detection); format: biochemical; conditions: enzyme assay of Example 12; read-out: IDH1R132H IC50
Chain of IDH1 R132H (O75874 whole entry R132H): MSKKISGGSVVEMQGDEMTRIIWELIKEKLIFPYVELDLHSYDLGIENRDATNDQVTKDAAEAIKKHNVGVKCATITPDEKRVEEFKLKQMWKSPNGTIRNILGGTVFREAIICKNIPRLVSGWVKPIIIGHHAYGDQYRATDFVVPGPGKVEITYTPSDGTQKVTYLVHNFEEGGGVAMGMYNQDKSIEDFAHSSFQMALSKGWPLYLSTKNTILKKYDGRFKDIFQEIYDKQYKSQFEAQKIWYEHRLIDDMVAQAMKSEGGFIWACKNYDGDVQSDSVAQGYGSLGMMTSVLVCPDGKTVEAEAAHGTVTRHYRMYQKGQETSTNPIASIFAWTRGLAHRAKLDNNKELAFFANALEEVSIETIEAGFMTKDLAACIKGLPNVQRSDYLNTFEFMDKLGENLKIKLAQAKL
How it was run: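 Read-out is resorufin fluorescence (Ex544/Em590) 5 min after adding a 30 μM resazurin detection mix. Before that, mutant enzyme (0.2 μg/ml in its mix) ran 50 min at room temperature with compound, 8 uM NADPH and 2 mM aKG (mix levels) in Tris pH 7.5 with NaCl, MgCl2, BSA.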

U87MG cells = experiment: Cellular assay for IDH1m inhibitors: inhibition of 2-HG production (LC-MS, 48 hours) in U87MG cells; format: cell-based; conditions: Homo sapiens, U-87 MG, inhibition of 2-HG production, U87R132H cells; read-out: U87R132H IC50
How it was run: as §1

SMILES	IC50 (HT1080 cells) [nM]	IC50 (IDH1 R132H) [nM]	IC50 (U87MG cells) [nM]
COCCC(=O)N1CCN(c2nc(C3CC3)c(-c3ccc(F)c(C#N)c3)c(C)c2C#N)C[C@H]1C [Compound 321, (R)-5-(3-cyano-4-fluoro-phenyl)-6-cyclopropyl-2-[4-(3-methoxy-propionyl)-3-methyl-piperazin-1-yl]-4-methyl-nicotinonitrile]	500 to 1000	< 500	< 500
C=CS(=O)(=O)Nc1cccc(-c2c(C3CC3)nc(N3CCN(C(=O)C4CC4)[C@H](C4CC4)C3)c(C#N)c2C)c1 [Compound 470, (R)—N-(3-(5-cyano-6-(4-(cyclopropanecarbonyl)-3-cyclopropylpiperazin-1-yl)-2-cyclopropyl-4-methylpyridin-3-yl)phenyl)ethenesulfonamide]	1000 to 10000	< 500	1000 to 10000
COCCC(=O)N1CCN(c2nc(C3CC3)c(-c3ccsc3)c(C)c2C#N)C[C@H]1C [Compound 270, (R)-6-cyclopropyl-2-(4-(3-methoxypropanoyl)-3-methylpiperazin-1-yl)-4-methyl-5-(thiophen-3-yl)nicotinonitrile]	1000 to 10000	500 to 1000	1000 to 10000
COCCC(=O)N1CCN(c2nc(C3CC3)c(-c3ccc(N)cc3)c(C)c2C#N)C[C@H]1C [Compound 411, (R)-5-(4-aminophenyl)-6-cyclopropyl-2-(4-(3-methoxypropanoyl)-3-methylpiperazin-1-yl)-4-methylnicotinonitrile]	500 to 1000	< 500	500 to 1000
COCCC(=O)N1CCN(c2nc(C3CC3)c(-c3cccc(N)c3)cc2C#N)C[C@H]1C [Compound 285, (R)-5-(3-aminophenyl)-6-cyclopropyl-2-(4-(3-methoxypropanoyl)-3-methylpiperazin-1-yl)nicotinonitrile]	500 to 1000	< 500	1000 to 10000
COCCC(=O)N1CCN(c2nc(C3CC3)c(-c3cccc4cnccc34)cc2C#N)CC1C(F)(F)F (stereo not drawn) [Compound 398, 6-cyclopropyl-5-(isoquinolin-5-yl)-2-(4-(3-methoxypropanoyl)-3-(trifluoromethyl)piperazin-1-yl)nicotinonitrile]	1000 to 10000	< 500	500 to 1000
COCCC(=O)N1CCN(c2nc(C3CC3)c(OCc3cccc([N+](=O)[O-])c3)cc2C#N)C[C@H]1C [Compound 312, (R)-6-cyclopropyl-2-(4-(3-methoxypropanoyl)-3-methylpiperazin-1-yl)-5-(3-nitrobenzyloxy)nicotinonitrile]	500 to 1000	< 500	1000 to 10000
C=CC(=O)N(c1ccncc1)c1cc(C#N)c(N2CCN(C(=O)CCOC)[C@H](C)C2)nc1C1CC1 [Compound 702, (R)—N-(5-cyano-2-cyclopropyl-6-(4-(3-methoxypropanoyl)-3-methylpiperazin-1-yl)pyridin-3-yl)-N-(pyridin-4-yl) acryl amide]	1000 to 10000	< 500	1000 to 10000
COCCC(=O)N1CCN(c2nc(C3CC3)c(OCc3ccncc3)cc2C#N)C[C@H]1C [Compound 309, (R)-6-cyclopropyl-2-(4-(3-methoxypropanoyl)-3-methylpiperazin-1-yl)-5-(pyridin-4-ylmethoxy)nicotinonitrile]	500 to 1000	< 500	500 to 1000
C=Cc1cc(-c2c(C3CC3)nc(N3CCN(C(=O)CCOC)[C@H](C4CC4)C3)c(C#N)c2C)ccn1 [Compound 558, (R)-2-cyclopropyl-6-(3-cyclopropyl-4-(3-methoxypropanoyl)piperazin-1-yl)-4-methyl-2′-vinyl-3,4′-bipyridine-5-carbonitrile]	< 500	< 500	< 500
C#CC(=O)N(C)c1cccc(-c2cc(C#N)c(N3CCN(C(=O)CCOC)[C@H](C)C3)nc2C2CC2)c1 [Compound 456]	< 500	< 500	< 500

Other lines, results leading:

IC50 (HT1080 cells) [nM]	IC50 (IDH1 R132H) [nM]	IC50 (U87MG cells) [nM]	SMILES
< 500	< 500	< 500	COCCC(=O)N1CCN(c2nc(C3CC3)c(Nc3ccnc(C#N)c3)cc2C#N)C[C@H]1C [Compound 660, (R)-4-(5-cyano-2-cyclopropyl-6-(4-(3-methoxypropanoyl)-3-methylpiperazin-1-yl)pyridin-3-ylamino)picolinonitrile]
< 500	< 500	< 500	C=Cc1cc(-c2cc(C#N)c(N3CCN(C(=O)CCO)[C@H](C4CC4)C3)nc2C2CC2)cnn1 [Compound 686, (R)-6-cyclopropyl-2-(3-cyclopropyl-4-(3-hydroxypropanoyl)piperazin-1-yl)-5-(6-vinylpyridazin-4-yl)nicotinonitrile]
< 500	< 500	< 500	C=Cc1cc(Nc2cc(C#N)c(N3CCN(C(=O)COC)[C@H](C(C)C)C3)nc2C2CC2)ccn1 [Compound 743, (R)-6-cyclopropyl-2-(3-isopropyl-4-(2-methoxyacetyl)piperazin-1-yl)-5-((2-vinylpyridin-4-yl)amino)nicotinonitrile]
< 500	< 500	< 500	N#Cc1cc(-c2ccnc(Br)c2)c(C2CC2)nc1N1CCN(C(=O)C2CC2)[C@H](C2CC2)C1 [Compound 508, (R)-2′-bromo-6-(4-(cyclopropanecarbonyl)-3-cyclopropylpiperazin-1-yl)-2-cyclopropyl-3,4′-bipyridine-5-carbonitrile]
< 500	< 500	< 500	C=Cc1cc(-c2cc(C#N)c(N3CCN(C(=O)CCCO)[C@H](C4CC4)C3)nc2C2CC2)ccn1 [Compound 753, (R)-2-cyclopropyl-6-(3-cyclopropyl-4-(4-hydroxybutanoyl)piperazin-1-yl)-2′-vinyl-3,4′-bipyridine-5-carbonitrile]
< 500	< 500	< 500	C=Cc1cc(-c2cc(C#N)c(N3CCN(C(=O)C[C@H]4CCO4)[C@H](C4CC4)C3)nc2C2CC2)ccn1 [Compound 752, 2-cyclopropyl-6-((R)-3-cyclopropyl-4-(2-((R)-oxetan-2-yl)acetyl)piperazin-1-yl)-2′-vinyl-3,4′-bipyridine-5-carbonitrile]
< 500	< 500	< 500	C=Cc1cc(-c2c(C3CC3)nc(N3CCN(C(=O)CN4CCC4=O)[C@H](C4CC4)C3)c(C#N)c2C)ccn1 [Compound 811]
< 500	< 500	500 to 1000	COCCC(=O)N1CCN(c2nc(C3CC3)c(Nc3ccnc(Cl)c3)cc2C#N)C[C@H]1C [Compound 643, (R)-5-((2-chloropyridin-4-yl)amino)-6-cyclopropyl-2-(4-(3-methoxypropanoyl)-3-methylpiperazin-1-yl)nicotinonitrile]
< 500	< 500	< 500	C=Cc1ccnc(Nc2cc(C#N)c(N3CCN(C(=O)CCOC)[C@H](C4CC4)C3)nc2C2CC2)c1 [Compound 706, (R)-6-cyclopropyl-2-(3-cyclopropyl-4-(3-methoxypropanoyl)piperazin-1-yl)-5-((4-vinylpyridin-2-yl)amino)nicotinonitrile]
< 500	< 500	500 to 1000	C=Cc1cc(-c2cc(C#N)c(N3CCN(C(=O)CCO)[C@H](C)C3)nc2C2CC2)ncn1 [Compound 621, (R)-6-cyclopropyl-2-(4-(3-hydroxypropanoyl)-3-methylpiperazin-1-yl)-5-(6-vinylpyrimidin-4-yl)nicotinonitrile]
